# How the values were obtained:
# [1] = biological target: T1, PRC1 (Mus musculus, UniProt Q9CQJ4); assay: Western blot of H2Aub in mESCs cultured with PRC1 inhibitor; format: cell-based; conditions: 50 μM PRT4165, after 6h of culture, vs DMSO control (FIG. 15b)
# T1 construct: endogenous in cells; host or cells: J1 (wild type) and Dnmt-TKO mouse embryonic stem cells
# T1 sequence (Q9CQJ4 1-336): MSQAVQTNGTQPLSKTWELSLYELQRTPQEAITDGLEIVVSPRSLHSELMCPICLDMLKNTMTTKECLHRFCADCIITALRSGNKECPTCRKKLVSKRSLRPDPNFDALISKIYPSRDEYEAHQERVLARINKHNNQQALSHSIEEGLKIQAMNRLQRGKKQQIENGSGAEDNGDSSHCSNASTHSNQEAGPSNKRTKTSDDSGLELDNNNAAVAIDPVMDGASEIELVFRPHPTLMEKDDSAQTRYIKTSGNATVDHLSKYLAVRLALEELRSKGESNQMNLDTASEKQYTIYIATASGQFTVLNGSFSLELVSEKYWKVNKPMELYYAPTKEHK
# Method: (§1) J1 (wild type), Dnmt-TKO^23 and Tet1-KO Dnmt-TKO mESCs were cultured in FCS/LIF medium without feeders on 0.1% gelatin. FCS/LIF medium consists of GMEM (Gibco) supplemented with 10% FCS, 0.1 mM MEM nonessential amino acids, 2 mM 1-glutamine, 1 mM sodium pyruvate, 0.1 mM 2-mercaptoethanol and mouse LIF (ESGRO, Millipore). For inhibitor experiments, mESCs were plated at a density of 1.5×10^4/cm^2 and left overnight. The next morning medium was exchanged for FCS/LIF medium containing either 50 μM PRC1 inhibitor PRT4165 (Ismail et al., 2013) or DMSO control and cells pelleted at the indicated time for analysis.
# mESCs were lysed by sonication in RIPA buffer (150 mM sodium chloride, 1.0% Triton X-100, 0.5% sodium deoxychlorate, 0.1% sodium dodecylsulfate, 50 mM Tris pH 8.0) and protease-inhibitor cocktail (Roche, 11 697 498 001). Cell debris were removed by centrifugation at 14000 g 5 min 4° C. Protein was quantified using the BCA protein assay (Thermo, 23227). 2 μg (for H2A and H2Aub) or 20 μg (for Tet1) of each protein extract was loaded onto an 15% or 8% SDS polyacrylamide gel and transferred to a PVDF membrane after electrophoresis. Membranes were blocked with 5% BSA for 1 hour and then incubated overnight at 4° C. with primary antibodies at the following dilutions: anti-H2A antibody (Abcam, 18255) 1:2000; anti-ubiquityl H2A antibody (Cell Signalling 8240) 1:2000; anti-Tet1 antibody [N1] […]
# [2] = system: germline reprogramming responsive (GRR) genes; assay: RNA-Seq differential expression of GRR genes in mESCs; format: cell-based, mouse
# Method: as §1, with “analysis. […]” for “analysis.”
# For study of Tet1-KO and Tet1-WT PGCs, Illumina and Smart-seq adapters from the sequencing reads were first trimmed using Trimmomatic. […] RNA-Seq reads were aligned to the mouse genome (mm9, NCBI build 37) with Bowtie (version 0.12.8) and Tophat (version 2.0.2) with options -N 2 --b2-very-sensitive --b2-L 25. […] Read counts per annotated gene were computed using HTSeq (version 0.5.3p9) and expression level of each gene was quantified by computing the number of fragments detected per kilobase per million of reads (FPKM) using custom R script. […] For determining gene expression levels in wild type and Dnmt1-conditional knockout and matched wild type E10.5 PGCs, raw RNA-Seq reads were downloaded from GSE74938^24 and processed as above. […]
structure (smiles),measurement,setting,value
O=C1C(=Cc2cccnc2)C(=O)c2ccccc21 [PRT4165],inhibition of PRC1-mediated H2A ubiquitination,[1],significant inhibition
same,number of GRR genes activated (of 45) upon dual inhibition of 5mC/PRC1 repression,"[2]; Dnmt-TKO mESCs + 6h PRT4165 (50 μM) vs wild type + 6h DMSO (FIG. 4d, 15c)",33 GRR genes
same,number of GRR genes activated (of 45) upon sole inhibition of PRC1 repression,"[2]; wild type mESCs + 6h PRT4165 (50 μM) vs wild type + 6h DMSO (FIG. 4d, 15c)",10 genes

# From patent US20210071138A1, “GAMETOGENESIS” (United Kingdom Research and Innovation, priority 2017, published 2021)
